The values that follow are results of earlier work, collected in patent US11999963B2, “Pseudomonas protegens and products thereof to control bacterial panicle blight of rice” (priority 2020, dated 2024).

The series concerns Pythium ultimum. Particulars: Howell & Stipanovic, 1980; Maurhofer et al., 1994.

Regarding `O=C(c1cc(Cl)c(Cl)[nH]1)c1c(O)cccc1O` [Pyoluteorin, pyoluteorin], the “activity against Pythium ultimum” value was “had activity”.
